Measured values taken from paper PMC11206766, “QbD-Based Development and Evaluation of Pazopanib Hydrochloride Extrudates Prepared by Hot-Melt Extrusion Technique: In Vitro and In Vivo Evaluation” (Pharmaceutics, 2024).

What was measured:
[1] = Oral pharmacokinetic / bioavailability study in rabbits; assay type: in vivo, New Zealand white rabbits; conditions: rabbit, equivalent to 200 mg pazopanib
Description: A bioavailability study was carried out to assess the drug absorption and pharmacokinetic parameters of different prepared formulations. A suitable animal was selected, and in vivo studies were performed in accordance with the ethical guidelines for animal care and use committee.
New Zealand white rabbits (Species and strain: […]) (5–6 months older, 2.0 ± 0.2 kg, 34–50 cm without tail) were utilized in this study. Animals were maintained at standard environmental conditions of temperature 24 ± 2 °C, humidity (55 ± 5%), under 12:12 h light (08:00–20:00 h)/dark cycle. Animals had free access to rodent chow and tap water ad libitum. Approval for animal studies was gained by the Institutional Animal Ethics Committee (Protocol no. IAEC; 1888/PO/Re/S/16/ CPCSEA/2022/01), constituted for the purpose of control and supervision of experimental animals and agreed with the globally acknowledged Principles for Laboratory Animal Use and Care as indicated by the National Institutes of Health Guide (NIH Publication No. 85–23, revised 1985). Animals were naive to drug treatments and experimentation, at the beginning of all studies. All tests were conducted at BM College of Pharmaceutical Education and Research (BMCPER), Indore, M.P. between 09:00 and 18:00 h.
Animals (n = 3) were settled into three different groups. First group (control) received Pazopanib drug (control), second group received the marketed pazopanib hydrochloride immediate release tablet (Votrient Tablets, 200 mg), while third group received drug formulations (equivalent to 200 mg of Pazopanib) prepared using HME technique, respectively. Dosage forms were administered orally via gastric intubation. Animals were fasted for 12 h with free access to water prior to drug administration. Rabbits were held in rabbit restrainers during blood sampling. Blood samples were collected in heparinized tubes from ear veins at predetermined time points (0, 0.5, 1, 2, 3, 4, 6, 8, 12, and 24 h) after oral administration. Plasma samples were obtained following centrifugation of blood at 3200× g for 5 min at 2–8 °C and kept frozen at −70 °C until analysis.
Pazopanib plasma concentration was plotted against time to obtain the concentration–time profiles, which were used to determine the peak blood concentration (Cmax) and time to achieve the peak concentration (Tmax). Non-compartmental pharmacokinetic analysis was conducted to calculate the area under the curve from 0 to 24 h [(AUC)0-24). The values of Cmax and Tmax for the test preparation were obtained by actual observations. All data were presented as mean ± standard deviation. In order to determine the area under the curve from 0 to 24 h, a non-compartmental PK study was performed using Win-Nonlin PK/PD software (version 8.1). Comparative blood plasma concentration (µg/mL) at different time points for Pazopanib drug and its formulation are depicted in below Figure 24.

[2] = cited from earlier work
[3] = oral via gastric intubation, fasted, plasma

With `Cc1ccc(Nc2nccc(N(C)c3ccc4c(C)n(C)nc4c3)n2)cc1S(N)(=O)=O.Cl` [PZB-Drug/API, Pazopanib Hydrochloride] the Cmax [1, 3] was 44700 ng/mL, the Tmax [1, 3] was 2 h and the T lag ([1]; oral) was 0 h. For the same compound, the “AUC Last” value ([1]; oral, 0 to 24 h, non-compartmental) was 308.675 µg·h/mL, the “C Last” value ([1]; oral, last sampling 24 h) was 7.6 µg/mL and the BCS class [2] was “BCS class II”. For the same compound, the “log P” value [2] was 3.55 and the pKa [2] was 2.5.
